Measurements as given in EP1660884B1, “CROWN ETHER DERIVATIVES” (Life Technologies Corporation, priority 2003, dated 2005).
“Also recorded” adds a separate entry of the source.

System: Jurkat cells
Assay: Calibration of sodium indicator fluorescence response in cells (flow cytometry)
Assay type: cell-based
Conditions: Jurkat cells loaded with 5 µM for 30 minutes at 37 °C, 2 µM gramicidin, extracellular Na+ 0-145 mM, excitation at 488 nm
Method: Example 3: Calibration of sodium indicator fluorescence response in cells.
Jurkat cells were loaded with a 5 µM solution of either Compound 25 (a compound according to Formula (I) as shown below), or commercially available SODIUM GREEN tetraacetate indicator (Molecular Probes, Inc., Eugene, OR) and 10 µM for Compound 87 (Example 9) for 30 minutes at 37 °C. The use of PLURONIC dispersing agent helped dissolve the selected indicator. Intracellular sodium concentrations were then established by varying the sodium concentration of the extracellular buffer in the presence of 2 µM gramicidin (a sodium-pore forming antibiotic). The extracellular buffer was set at 0 mM, 10 mM, 20 mM, 50 mM, 100 mM, and 145 mM, respectively. Intracellular fluorescence response of the selected indicators was measured using a FACSCAN flow cytometer and associated software, with fluorescence excitation at 488 nm.

## CC(=O)OCOC(=O)CN1CCOCCN(CC(=O)OCOC(C)=O)c2ccc(-c3c4cc(F)c(=O)cc-4oc4cc(OCOC(C)=O)c(F)cc34)cc2OCCOc2cc(C)ccc21 [Compound 25]
  intracellular fluorescence intensity as intracellular Na^+ concentration was increased: consistent increase in fluorescence intensity
Figure 3
  intracellular fluorescence intensity compared with SODIUM GREEN indicator: substantially brighter intracellular fluorescence intensity than the SODIUM GREEN indicator; also recorded: stronger fluorescence intensity than SODIUM GREEN sodium indicator
